{"source": "PubChem BioAssay (NCI)", "experiment_in_all_cases": "inhibition of tumour cell growth, NCI panel, 48 h", "key": {"[1]": {"system": "A498 renal"}, "[2]": {"system": "CAKI-1 renal"}, "[3]": {"system": "CCRF-CEM leukemia"}, "[4]": {"system": "DU-145 prostate"}, "[5]": {"system": "HOP-92 NSCLC"}, "[6]": {"system": "HS 578T breast"}, "[7]": {"system": "HT29 colon"}, "[8]": {"system": "SK-OV-3 ovarian"}, "[9]": {"system": "T-47D breast"}, "[10]": {"system": "UACC-62 melanoma"}}, "note": "Several values for one entry are separate records, joined by “and”; a condition that tells them apart may be missing. Equal values may be shown once.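 48-hour exposure; five concentrations; linearly interpolated endpoints. GI50: concentration for 50% inhibition of growth. Definition used: TGI = concentration required for complete inhibition of growth.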", "data": [{"smiles": "Cc1cc(C)c(S(=O)(=O)N(CCc2cccc(Br)c2)Cc2ccc(-c3cccc(S(C)(=O)=O)c3)cc2)c(C)c1", "values": [{"measurement": "GI50", "setting": "[1]", "value": "> 100", "unit": "µM"}, {"measurement": "TGI", "setting": "[1]", "value": "> 100", "unit": "µM"}, {"measurement": "GI50", "setting": "[2]", "value": "> 100", "unit": "µM"}, {"measurement": "TGI", "setting": "[2]", "value": "> 100", "unit": "µM"}, {"measurement": "GI50", "setting": "[3]", "value": "> 100", "unit": "µM"}, {"measurement": "TGI", "setting": "[3]", "value": "> 100", "unit": "µM"}, {"measurement": "GI50", "setting": "[4]", "value": "> 100", "unit": "µM"}, {"measurement": "TGI", "setting": "[4]", "value": "> 100", "unit": "µM"}, {"measurement": "GI50", "setting": "[5]", "value": "> 100", "unit": "µM"}, {"measurement": "TGI", "setting": "[5]", "value": "> 100", "unit": "µM"}, {"measurement": "GI50", "setting": "[6]", "value": "> 100", "unit": "µM"}, {"measurement": "TGI", "setting": "[6]", "value": "> 100", "unit": "µM"}, {"measurement": "GI50", "setting": "[7]", "value": "> 100", "unit": "µM"}, {"measurement": "TGI", "setting": "[7]", "value": "> 100", "unit": "µM"}, {"measurement": "GI50", "setting": "[8]", "value": "> 100", "unit": "µM"}, {"measurement": "TGI", "setting": "[8]", "value": "> 100", "unit": "µM"}, {"measurement": "GI50", "setting": "[9]", "value": "> 100", "unit": "µM"}, {"measurement": "TGI", "setting": "[9]", "value": "> 100", "unit": "µM"}, {"measurement": "GI50", "setting": "[10]", "value": "> 100", "unit": "µM"}, {"measurement": "TGI", "setting": "[10]", "value": "> 100", "unit": "µM"}]}, {"smiles": "COc1cccc(N=N/C(=N\\NC(=O)c2cc(Br)ccc2O)c2ccc(N(CCC#N)CCC#N)cc2OC)c1", "values": [{"measurement": "GI50", "setting": "[1]", "value": 150, "unit": "µg/mL"}, {"measurement": "TGI", "setting": "[1]", "value": "> 150", "unit": "µg/mL"}, {"measurement": "GI50", "setting": "[2]", "value": 88.6, "unit": "µg/mL"}, {"measurement": "TGI", "setting": "[2]", "value": "> 150", "unit": "µg/mL"}, {"measurement": "GI50", "setting": "[3]", "value": 53.7, "unit": "µg/mL"}, {"measurement": "TGI", "setting": "[3]", "value": "> 150", "unit": "µg/mL"}, {"measurement": "GI50", "setting": "[4]", "value": 87.2, "unit": "µg/mL"}, {"measurement": "TGI", "setting": "[4]", "value": "> 150", "unit": "µg/mL"}, {"measurement": "GI50", "setting": "[5]", "value": 116, "unit": "µg/mL"}, {"measurement": "TGI", "setting": "[5]", "value": "> 150", "unit": "µg/mL"}, {"measurement": "GI50", "setting": "[6]", "value": 48.9, "unit": "µg/mL"}, {"measurement": "TGI", "setting": "[6]", "value": "> 150", "unit": "µg/mL"}, {"measurement": "GI50", "setting": "[7]", "value": 30, "unit": "µg/mL"}, {"measurement": "TGI", "setting": "[7]", "value": "> 150", "unit": "µg/mL"}, {"measurement": "GI50", "setting": "[8]", "value": 72.6, "unit": "µg/mL"}, {"measurement": "TGI", "setting": "[8]", "value": "> 150", "unit": "µg/mL"}, {"measurement": "GI50", "setting": "[9]", "value": 64, "unit": "µg/mL"}, {"measurement": "TGI", "setting": "[9]", "value": "> 150", "unit": "µg/mL"}, {"measurement": "GI50", "setting": "[10]", "value": 60.5, "unit": "µg/mL"}, {"measurement": "TGI", "setting": "[10]", "value": "> 150", "unit": "µg/mL"}]}, {"smiles": "Cc1ncc(C(=O)Nc2ccc(CN3CCN(C)CC3)c(C(F)(F)F)c2)cc1C#Cc1c(N)ncc2ccccc12", "values": [{"measurement": "GI50", "setting": "[1]", "value": 0.485, "unit": "µM"}, {"measurement": "TGI", "setting": "[1]", "value": 0.939, "unit": "µM"}, {"measurement": "GI50", "setting": "[2]", "value": 0.648, "unit": "µM"}, {"measurement": "TGI", "setting": "[2]", "value": 2.35, "unit": "µM"}, {"measurement": "GI50", "setting": "[3]", "value": 0.494, "unit": "µM"}, {"measurement": "TGI", "setting": "[3]", "value": 1.35, "unit": "µM"}, {"measurement": "GI50", "setting": "[4]", "value": 0.502, "unit": "µM"}, {"measurement": "TGI", "setting": "[4]", "value": 0.997, "unit": "µM"}, {"measurement": "GI50", "setting": "[5]", "value": 0.0535, "unit": "µM"}, {"measurement": "TGI", "setting": "[5]", "value": 0.505, "unit": "µM"}, {"measurement": "GI50", "setting": "[6]", "value": 0.356, "unit": "µM"}, {"measurement": "TGI", "setting": "[6]", "value": 1.26, "unit": "µM"}, {"measurement": "GI50", "setting": "[7]", "value": 0.0978, "unit": "µM"}, {"measurement": "TGI", "setting": "[7]", "value": 0.585, "unit": "µM"}, {"measurement": "GI50", "setting": "[8]", "value": 1.61, "unit": "µM"}, {"measurement": "TGI", "setting": "[8]", "value": 5.06, "unit": "µM"}, {"measurement": "GI50", "setting": "[9]", "value": 1.96, "unit": "µM"}, {"measurement": "TGI", "setting": "[9]", "value": 7.7, "unit": "µM"}, {"measurement": "GI50", "setting": "[10]", "value": 0.246, "unit": "µM"}, {"measurement": "TGI", "setting": "[10]", "value": 0.781, "unit": "µM"}]}, {"smiles": "Clc1cc(-c2ccccc2)nc2ccccc12", "values": [{"measurement": "TGI", "setting": "[1]", "value": 94.3, "unit": "µM"}, {"measurement": "TGI", "setting": "[2]", "value": "> 100", "unit": "µM"}, {"measurement": "TGI", "setting": "[3]", "value": 54.1, "unit": "µM"}, {"measurement": "TGI", "setting": "[4]", "value": "> 100", "unit": "µM"}, {"measurement": "TGI", "setting": "[5]", "value": "> 100", "unit": "µM"}, {"measurement": "TGI", "setting": "[6]", "value": "> 100", "unit": "µM"}, {"measurement": "TGI", "setting": "[7]", "value": "> 100", "unit": "µM"}, {"measurement": "TGI", "setting": "[8]", "value": "> 100", "unit": "µM"}, {"measurement": "TGI", "setting": "[9]", "value": "> 100", "unit": "µM"}, {"measurement": "TGI", "setting": "[10]", "value": "> 100", "unit": "µM"}]}, {"smiles": "Cc1nc2c(N3CCCC3)nc(N3CCNCC3)nc2nc1NCc1ccccc1", "values": [{"measurement": "GI50", "setting": "[1]", "value": 14.2, "unit": "µM"}, {"measurement": "TGI", "setting": "[1]", "value": "9.77 µM and 27.2 µM"}, {"measurement": "GI50", "setting": "[2]", "value": 4.82, "unit": "µM"}, {"measurement": "TGI", "setting": "[2]", "value": "10.6 µM and 14 µM"}, {"measurement": "GI50", "setting": "[3]", "value": 4.65, "unit": "µM"}, {"measurement": "TGI", "setting": "[3]", "value": "11 µM and 6.27 µM"}, {"measurement": "GI50", "setting": "[4]", "value": 5.35, "unit": "µM"}, {"measurement": "TGI", "setting": "[4]", "value": "19.4 µM and 21.3 µM"}, {"measurement": "TGI", "setting": "[5]", "value": "7.83 µM and 13.7 µM"}, {"measurement": "GI50", "setting": "[6]", "value": 7.4, "unit": "µM"}, {"measurement": "TGI", "setting": "[6]", "value": "17 µM and 18.7 µM"}, {"measurement": "GI50", "setting": "[7]", "value": 1.95, "unit": "µM"}, {"measurement": "TGI", "setting": "[7]", "value": "8.36 µM and 11.7 µM"}, {"measurement": "GI50", "setting": "[8]", "value": 6.15, "unit": "µM"}, {"measurement": "TGI", "setting": "[8]", "value": "11.7 µM and 20.5 µM"}, {"measurement": "GI50", "setting": "[9]", "value": 3.23, "unit": "µM"}, {"measurement": "TGI", "setting": "[9]", "value": "13.8 µM and 4.96 µM"}, {"measurement": "GI50", "setting": "[10]", "value": 6.15, "unit": "µM"}, {"measurement": "TGI", "setting": "[10]", "value": "12.7 µM and 7.58 µM"}]}]}
